From PMC7985445, “Characterization of Plasmodium falciparum Pantothenate Kinase and Identification of Its Inhibitors From Natural Products” (Frontiers in Cellular and Infection Microbiology, 2021)
Read-outs that look alike come from different tables or passages of the source.

Tests used:
various human cell lines = tested on: various human cell lines; parameters: method as in Koizumi et al., 2009; conditions: ref Koizumi et al., 2009; cited from earlier work
[1] = tested on: P. falciparum K1 and FCR3 strain; conditions: ref Ui et al., 2007, read-out: IC50 P. falciparum erythrocytic stages, cited from earlier work
PfPanK1 = target: T1, PfPanK1 (Plasmodium falciparum, UniProt Q8ILP4); assay: Screening of natural compounds for PfPanK inhibitors and IC50 determination (recombinant enzyme, ADP Hunter Plus); assay type: biochemical
T1 sequence (Q8ILP4 1-519): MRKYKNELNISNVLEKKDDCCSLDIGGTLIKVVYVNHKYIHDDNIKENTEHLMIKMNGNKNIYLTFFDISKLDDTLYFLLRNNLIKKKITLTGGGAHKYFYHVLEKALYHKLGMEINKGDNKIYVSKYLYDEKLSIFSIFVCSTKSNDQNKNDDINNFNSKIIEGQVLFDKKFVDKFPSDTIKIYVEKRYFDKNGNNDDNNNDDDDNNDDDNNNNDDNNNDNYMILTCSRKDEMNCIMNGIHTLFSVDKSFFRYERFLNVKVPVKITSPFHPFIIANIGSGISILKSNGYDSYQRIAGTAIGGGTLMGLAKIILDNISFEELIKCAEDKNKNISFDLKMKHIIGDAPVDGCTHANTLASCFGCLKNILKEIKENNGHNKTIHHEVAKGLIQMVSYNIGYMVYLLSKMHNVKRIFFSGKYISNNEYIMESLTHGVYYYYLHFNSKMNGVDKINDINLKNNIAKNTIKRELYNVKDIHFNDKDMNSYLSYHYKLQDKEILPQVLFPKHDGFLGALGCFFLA
Description: We screened 247 compounds from the Kitasato Natural Products Library ([Mori et al., 2015]; [Nurkanto et al., 2018]) against PfPanK recombinant enzyme. Compounds were dissolved in 50% DMSO at a final concentration of 1 mg/ml.

[2] = tested on: Plasmodium falciparum sensitive strain 3D7; assay: P. falciparum asexual blood stage growth, diaphorase-coupled LDH assay; assay type: cell-based; conditions: 3D7, 72 h incubation, mean ± SEM, read-out: IC50 P. falciparum erythrocytic stages
Description: Before using, parasite culture was synchronized with 5% (w/v) d-sorbitol, as previously described ([Lambros and Vanderberg, 1979]). Ring stage 0.3% parasitemia (25 µl/well) were placed in a 384-well plate. Serial dilutions (50, 25, 12.5, 6.3, 3.1, 1.6, 0.8, and 0.4 μM) of each compound were used for calculating IC50. As the negative growth control, 50 µM of Mefloquine and 20 µM of Atovaquone were used. After 72 h of incubation, parasite growth was determined by diaphorase-coupled lactate dehydrogenase (LDH) assay, as previously described ([Hartuti et al., 2018]). Each well’s absorbance was measured at 650 nm using SpectraMax Paradigm®Multi-Mode microplate reader (Molecular Devices, San Jose, CA, USA). The IC50 values were analyzed and calculated with GraphPad PRISM 8.0 (San Diego, California USA).

[3] = recombinant PfPanK1; mean ± SEM

COc1c2c(c(O)c3c(=O)c4c(oc13)[C@@H](O)CC[C@@H]4O)-c1c3c(c4cc(C)n(C)c(=O)c4c1O)OCO[C@H]3C2 [Simaomicin α]
EC50 (various human cell lines): 0.3 to 19 nM | IC50 ([1]; FCR3 strain): 0.018 nM | IC50 ([1]; K1 strain): 0.083 nM | inhibition (PfPanK1; 2 h, primary screening; 37°C): 76.9% | IC50 (PfPanK1; [3]): 57600 ± 4800 nM

OC[C@H]1O[C@@H](Oc2ccc(/C=C/c3cc(O)c4c(c3)O[C@H](c3ccc(O)cc3)[C@H]4c3cc(O)cc(O)c3)cc2)[C@H](O)[C@@H](O)[C@@H]1O [Gnemonoside D]
IC50 [2]: 1900 ± 600 nM | inhibition (PfPanK1; primary screening; 37°C, 2 h): 85% | IC50 (PfPanK1; [3]): 57500 ± 3600 nM
